Assay results from ChEMBL document CHEMBL1201862, “PubChem BioAssay data set” (2004).
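Interpolation was linear, between the two tested concentrations surrounding the appropriate level; five concentrations were tested over 48 hours in 96-well plates. GI50: concentration for 50% inhibition of growth.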 The source made the active and inactive calls. Cut-off read from the data, not from the text of the source: active = GI50 up to about 1.1 µM and inactive = higher.

Key:
Test in all cases: NCI-60 cell line screen, 48 h
SK-OV-3 = system: SK-OV-3
786-0 = system: 786-0
HT-29 = system: HT-29
SNB-75 = system: SNB-75
NCI-H23 = system: NCI-H23
Hs-578T = system: Hs-578T
OVCAR-8 = system: OVCAR-8
UACC-257 = system: UACC-257
SK-MEL-28 = system: SK-MEL-28
NCI-H226 = system: NCI-H226
SK-MEL-5 = system: SK-MEL-5
A498 = system: A498
RPMI-8226 = system: RPMI-8226
COLO 205 = system: COLO 205
LOX IMVI = system: LOX IMVI
SF-268 = system: SF-268
NCI-H460 = system: NCI-H460
TK-10 = system: TK-10
KM12 = system: KM12
A549 = system: A549

| Structure (SMILES) | GI50 (SK-OV-3) | GI50 (786-0) | GI50 (HT-29) | GI50 (SNB-75) | GI50 (NCI-H23) | GI50 (Hs-578T) | GI50 (OVCAR-8) | GI50 (UACC-257) | GI50 (SK-MEL-28) | GI50 (NCI-H226) | GI50 (SK-MEL-5) | GI50 (A498) | GI50 (RPMI-8226) | GI50 (COLO 205) | GI50 (LOX IMVI) | GI50 (SF-268) | GI50 (NCI-H460) | GI50 (TK-10) | GI50 (KM12) | GI50 (A549) |
| --- | --- | --- | --- | --- | --- | --- | --- | --- | --- | --- | --- | --- | --- | --- | --- | --- | --- | --- | --- | --- |
| COc1cccc(C2c3cc4c(cc3OC(N3CCOCC3)C2C)OCO4)c1O (stereo not given) | 5.56 µM (inactive) | 5.6 µM (inactive) | 4.02 µM (inactive) | 7.29 µM (inactive) | 6.73 µM (inactive) | 1.77 µM (inactive) | 6.59 µM (inactive) | 9.14 µM (inactive) | 10.9 µM (inactive) | 4.46 µM (inactive) | 3.6 µM (inactive) | 6.27 µM (inactive) | 2.83 µM (inactive) | 4.28 µM (inactive) | 5.31 µM (inactive) | 6.89 µM (inactive) | 3.55 µM (inactive) | 8.24 µM (inactive) | 3.48 µM (inactive) | 4.82 µM (inactive) |
| COC(=O)C1C(OS(=O)(=O)O)CCC2CN3CCc4c([nH]c5ccccc45)C3CC21 (stereo not given) | > 100 µM (inactive) | > 100 µM (inactive) | > 100 µM (inactive) | > 100 µM (inactive) | > 100 µM (inactive) | > 100 µM (inactive) | > 100 µM (inactive) | > 100 µM (inactive) | > 100 µM (inactive) | > 100 µM (inactive) | > 100 µM (inactive) | > 100 µM (inactive) | > 100 µM (inactive) | > 100 µM (inactive) | > 100 µM (inactive) | > 100 µM (inactive) | > 100 µM (inactive) | > 100 µM (inactive) | > 100 µM (inactive) | > 100 µM (inactive) |
| O=c1c(C(c2ccc3ccccc3c2)c2c(O)oc3ccccc3c2=O)c(O)oc2ccccc12 | 50.9 µM (inactive) | 25.6 µM (inactive) | 18.5 µM (inactive) | 18.8 µM (inactive) | 23.2 µM (inactive) | 28.6 µM (inactive) | 16.1 µM (inactive) | 51.5 µM (inactive) | 28.6 µM (inactive) | 26.5 µM (inactive) | 22.6 µM (inactive) | 36.3 µM (inactive) | 32.4 µM (inactive) | 30.5 µM (inactive) | 34.6 µM (inactive) | 21.4 µM (inactive) | 27.7 µM (inactive) | 61.8 µM (inactive) | 18.1 µM (inactive) | 33 µM (inactive) |
| C=C1C(=O)C[C@H]2C(=C)C(=O)O[C@@H]2C2C1CC[C@@]2(C)O (stereo not given in full) | > 100 µM (inactive) | 19.9 µM (inactive) | 20 µM (inactive) | > 100 µM (inactive) | 24.9 µM (inactive) | 26.9 µM (inactive) | 31.7 µM (inactive) | 21.5 µM (inactive) | 27.4 µM (inactive) | 22.2 µM (inactive) | 39.4 µM (inactive) | > 100 µM (inactive) | 7.98 µM (inactive) | 14.5 µM (inactive) | 17.5 µM (inactive) | > 100 µM (inactive) | 18.8 µM (inactive) | 21.1 µM (inactive) | 50 µM (inactive) | 44.4 µM (inactive) |
| O=C1CC2(CCN(Cc3ccccc3)CC2)C(=O)N1N1CCCCC1 | > 100 µM (inactive) | > 100 µM (inactive) | > 100 µM (inactive) | > 100 µM (inactive) | > 100 µM (inactive) | > 100 µM (inactive) | > 100 µM (inactive) | > 100 µM (inactive) | > 100 µM (inactive) | > 100 µM (inactive) | > 100 µM (inactive) | > 100 µM (inactive) | > 100 µM (inactive) | > 100 µM (inactive) | > 100 µM (inactive) | > 100 µM (inactive) | > 100 µM (inactive) | > 100 µM (inactive) | > 100 µM (inactive) | > 100 µM (inactive) |
| N=c1oc2ccccc2cc1C(=O)NC12CC3CC(CC(C3)C1)C2 | 7.64 µM (inactive) | 2.88 µM (inactive) | 6.11 µM (inactive) | 19.3 µM (inactive) | 27.4 µM (inactive) | 32.4 µM (inactive) | 30.4 µM (inactive) | 23 µM (inactive) | 40.4 µM (inactive) | 24.2 µM (inactive) | 21.2 µM (inactive) | 22.1 µM (inactive) | 5.71 µM (inactive) | 14.1 µM (inactive) | 13.8 µM (inactive) | 34 µM (inactive) | 14.4 µM (inactive) | 16 µM (inactive) | 12 µM (inactive) | 16.2 µM (inactive) |
| CN(C)CCCC12CCCCC1=Nc1ccccc12 (stereo not given) | > 100 µM (inactive) | > 100 µM (inactive) | > 100 µM (inactive) | > 100 µM (inactive) | > 100 µM (inactive) | > 100 µM (inactive) | > 100 µM (inactive) | > 100 µM (inactive) | > 100 µM (inactive) | > 100 µM (inactive) | > 100 µM (inactive) | > 100 µM (inactive) | 65.5 µM (inactive) | 48.2 µM (inactive) | > 100 µM (inactive) | > 100 µM (inactive) | > 100 µM (inactive) | > 100 µM (inactive) | > 100 µM (inactive) | > 100 µM (inactive) |
| CC(C)(C)C(=O)OCC1CCC[N+]2(C)CCCCC12 (stereo not given) | > 100 µM (inactive) | > 100 µM (inactive) | > 100 µM (inactive) | > 100 µM (inactive) | > 100 µM (inactive) | > 100 µM (inactive) | > 100 µM (inactive) | > 100 µM (inactive) | > 100 µM (inactive) | > 100 µM (inactive) | > 100 µM (inactive) | > 100 µM (inactive) | > 100 µM (inactive) | > 100 µM (inactive) | > 100 µM (inactive) | > 100 µM (inactive) | > 100 µM (inactive) | > 100 µM (inactive) | > 100 µM (inactive) | > 100 µM (inactive) |
| COC(=O)C1C(O)C(C)C(O)C(C)C=C(C)C2=C3C(=C(C)C(=O)c4c(O)c(c(C)c(OC(C)=O)c43)NC(=O)C(C)=C/C=C\C(C)C(O)C(C)C1O)OCO2 (stereo not given) | > 100 µM (inactive) | 57.1 µM (inactive) | 27.7 µM (inactive) | 12.4 µM (inactive) | 24.9 µM (inactive) | 61.2 µM (inactive) | 27.7 µM (inactive) | 13.4 µM (inactive) | 22.3 µM (inactive) | 55.2 µM (inactive) | 19.9 µM (inactive) | 29.4 µM (inactive) | 18.4 µM (inactive) | 19.9 µM (inactive) | 17.1 µM (inactive) | 16.1 µM (inactive) | 67.5 µM (inactive) | 56.1 µM (inactive) | 31.9 µM (inactive) | 54 µM (inactive) |
| O=C(O)[C@@H]1NC[C@H]2C(Br)=NO[C@H]21 | > 100 µM (inactive) | > 100 µM (inactive) | > 100 µM (inactive) | > 100 µM (inactive) | > 100 µM (inactive) | > 100 µM (inactive) | > 100 µM (inactive) | > 100 µM (inactive) | > 100 µM (inactive) | > 100 µM (inactive) | 69.5 µM (inactive) | > 100 µM (inactive) | > 100 µM (inactive) | > 100 µM (inactive) | > 100 µM (inactive) | > 100 µM (inactive) | 78.2 µM (inactive) | 94.8 µM (inactive) | > 100 µM (inactive) | > 100 µM (inactive) |
| CCC(N)(C(=O)O)C(C)C (stereo not given) | > 100 µM (inactive) | > 100 µM (inactive) | > 100 µM (inactive) | > 100 µM (inactive) | > 100 µM (inactive) | > 100 µM (inactive) | > 100 µM (inactive) | > 100 µM (inactive) | > 100 µM (inactive) | > 100 µM (inactive) | > 100 µM (inactive) | > 100 µM (inactive) | > 100 µM (inactive) | > 100 µM (inactive) | > 100 µM (inactive) | > 100 µM (inactive) | > 100 µM (inactive) | > 100 µM (inactive) | > 100 µM (inactive) | > 100 µM (inactive) |
| O=Nc1ccc(O)c2ncccc12 | 12.6 µM (inactive) | 4.2 µM (inactive) | 15.3 µM (inactive) | 2.51 µM (inactive) | 0.762 µM (active) | 0.531 µM (active) | 3.47 µM (inactive) | 6.37 µM (inactive) | 4.34 µM (inactive) | 19.6 µM (inactive) | 7.21 µM (inactive) | 18.5 µM (inactive) | 3.52 µM (inactive) | 16.1 µM (inactive) | 3.89 µM (inactive) | 3.68 µM (inactive) | 1.25 µM (inactive) | 14.8 µM (inactive) | 5.19 µM (inactive) | 2.5 µM (inactive) |
| C/C(=N\Nc1nc2ccccc2o1)c1ccncn1 | 0.294 µM (active) | 0.0869 µM (active) | 0.0356 µM (active) | 0.457 µM (active) | 0.36 µM (active) | 0.955 µM (active) | 0.0929 µM (active) | 0.396 µM (active) | 0.513 µM (active) | 0.228 µM (active) | 0.181 µM (active) | 0.45 µM (active) | 0.109 µM (active) | 0.0427 µM (active) | 0.124 µM (active) | 0.132 µM (active) | 0.0964 µM (active) | 1.12 µM (active) | 0.163 µM (active) | 0.24 µM (active) |
| [Se]=P(c1ccccc1)(c1ccccc1)c1ccc(C(c2ccccc2)=P(c2ccccc2)(c2ccccc2)c2ccccc2)cc1 | 2.05 µM (inactive) | 1.2 µM (inactive) | 0.406 µM (active) | 0.431 µM (active) | 0.891 µM (active) | 0.435 µM (active) | 0.764 µM (active) | 0.817 µM (active) | 2.28 µM (inactive) | 1.31 µM (inactive) | 0.505 µM (active) | 2.76 µM (inactive) | 0.313 µM (active) | 0.308 µM (active) | 0.807 µM (active) | 0.514 µM (active) | 1.28 µM (inactive) | 1.41 µM (inactive) | 0.439 µM (active) | 1.44 µM (inactive) |
